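In this assay, cells in 96-well plates receive the compound at five concentrations for 48 hours. Endpoints are linearly interpolated between the surrounding concentrations. Here, GI50 denotes the concentration required for 50% inhibition of growth.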 The source made the active and inactive calls. Rule as the data show it: active = GI50 up to about 1.1 µM and inactive = higher.
Key:
Experiment in all cases: NCI-60 cell line screen, 48 h
786-0 = tested on: 786-0
A498 = tested on: A498
A549 = tested on: A549
ACHN = tested on: ACHN
CAKI-1 = tested on: CAKI-1
CCRF-CEM = tested on: CCRF-CEM
COLO 205 = tested on: COLO 205
DLD-1 = tested on: DLD-1
DMS-114 = tested on: DMS-114
DMS-273 = tested on: DMS-273
EKVX = tested on: EKVX
HCT-116 = tested on: HCT-116
HCT-15 = tested on: HCT-15
HL-60 = tested on: HL-60
HOP-18 = tested on: HOP-18
HOP-62 = tested on: HOP-62
HOP-92 = tested on: HOP-92
HT-29 = tested on: HT-29
IGROV-1 = tested on: IGROV-1
K562 = tested on: K562
KM-20L2 = tested on: KM-20L2
KM12 = tested on: KM12
LOX IMVI = tested on: LOX IMVI
LXFL 529 = tested on: LXFL 529
M14 = tested on: M14
M19-MEL = tested on: M19-MEL
MOLT-4 = tested on: MOLT-4
Malme-3M = tested on: Malme-3M
NCI-H226 = tested on: NCI-H226
NCI-H23 = tested on: NCI-H23
NCI-H460 = tested on: NCI-H460
NCI-H522 = tested on: NCI-H522
OVCAR-3 = tested on: OVCAR-3
OVCAR-4 = tested on: OVCAR-4
OVCAR-5 = tested on: OVCAR-5
OVCAR-8 = tested on: OVCAR-8
RPMI-8226 = tested on: RPMI-8226
RXF 393 = tested on: RXF 393
SF-268 = tested on: SF-268
SF-295 = tested on: SF-295
SF-539 = tested on: SF-539
SK-MEL-28 = tested on: SK-MEL-28
SK-MEL-2 = tested on: SK-MEL-2
SK-MEL-5 = tested on: SK-MEL-5
SK-OV-3 = tested on: SK-OV-3
SN12C = tested on: SN12C
SNB-19 = tested on: SNB-19
SNB-75 = tested on: SNB-75
SNB-78 = tested on: SNB-78
SR = tested on: SR
SW-620 = tested on: SW-620
TK-10 = tested on: TK-10
U-251 = tested on: U-251
UACC-257 = tested on: UACC-257
UACC-62 = tested on: UACC-62
UO-31 = tested on: UO-31
XF498 = tested on: XF498

With `CC1=CC(=O)NP(=O)(Oc2ccc(Cl)cc2)N1` (configuration not stated) the GI50 (786-0) was > 100 µM (inactive), the GI50 (A498) was > 100 µM (inactive) and the GI50 (A549) was > 100 µM (inactive). The GI50 (ACHN) was > 100 µM (inactive), the GI50 (CAKI-1) was > 100 µM (inactive) and the GI50 (CCRF-CEM) was > 100 µM (inactive). For the same compound, the GI50 (COLO 205) was > 100 µM (inactive), the GI50 (DLD-1) was > 100 µM (inactive) and the GI50 (DMS-114) was > 100 µM (inactive). For the same compound, the GI50 (DMS-273) was > 100 µM (inactive), the GI50 (EKVX) was > 100 µM (inactive) and the GI50 (HCT-116) was > 100 µM (inactive). The GI50 (HCT-15) was greater than 100 µM, the GI50 (HL-60) was 55.6 µM (inactive) and the GI50 (HOP-18) was > 100 µM (inactive). The GI50 (HOP-62) was > 100 µM (inactive), the GI50 (HOP-92) was > 100 µM (inactive) and the GI50 (HT-29) was > 100 µM (inactive). For the same compound, the GI50 (IGROV-1) was > 100 µM (inactive), the GI50 (K562) was 89.3 µM (inactive) and the GI50 (KM-20L2) was > 100 µM (inactive). For the same compound, the GI50 (KM12) was > 100 µM (inactive), the GI50 (LOX IMVI) was > 100 µM (inactive) and the GI50 (LXFL 529) was > 100 µM (inactive). For the same compound, the GI50 (M14) was > 100 µM (inactive), the GI50 (M19-MEL) was > 100 µM (inactive) and the GI50 (MOLT-4) was > 100 µM (inactive). The GI50 (Malme-3M) was > 100 µM (inactive), the GI50 (NCI-H226) was > 100 µM (inactive) and the GI50 (NCI-H23) was > 100 µM (inactive). The GI50 (NCI-H460) was > 100 µM (inactive), the GI50 (NCI-H522) was > 100 µM (inactive) and the GI50 (OVCAR-3) was > 100 µM (inactive). For the same compound, the GI50 (OVCAR-4) was > 100 µM (inactive), the GI50 (OVCAR-5) was > 100 µM (inactive) and the GI50 (OVCAR-8) was > 100 µM (inactive). For the same compound, the GI50 (RPMI-8226) was > 100 µM (inactive), the GI50 (RXF 393) was > 100 µM (inactive) and the GI50 (SF-268) was > 100 µM (inactive). The GI50 (SF-295) was > 100 µM (inactive), the GI50 (SF-539) was > 100 µM (inactive) and the GI50 (SK-MEL-28) was > 100 µM (inactive). For the same compound, the GI50 (SK-MEL-2) was > 100 µM (inactive), the GI50 (SK-MEL-5) was > 100 µM (inactive) and the GI50 (SK-OV-3) was > 100 µM (inactive). The GI50 (SN12C) was > 100 µM (inactive), the GI50 (SNB-19) was > 100 µM (inactive) and the GI50 (SNB-75) was > 100 µM (inactive). The GI50 (SNB-78) was > 100 µM (inactive), the GI50 (SR) was > 100 µM (inactive) and the GI50 (SW-620) was > 100 µM (inactive). The GI50 (TK-10) was > 100 µM (inactive), the GI50 (U-251) was > 100 µM (inactive) and the GI50 (UACC-257) was > 100 µM (inactive). The GI50 (UACC-62) was > 100 µM (inactive), the GI50 (UO-31) was > 100 µM (inactive) and the GI50 (XF498) was > 100 µM (inactive).

From ChEMBL document CHEMBL1201862, “PubChem BioAssay data set” (2004)
